TGI data for 8 compounds are collected here from PubChem BioAssay (NCI).

Test in all cases: DTP human tumour cell line panel, 48 h
Experiment [1] concerns SK-MEL-5 melanoma.
In experiment [2] the test system is MDA-MB-231 breast.
Experiment [3] concerns SR leukemia.
For experiment [4], the system named is KM12 colon.
Experiment [5] relates to SW-620 colon.
The test system of experiment [6] is COLO 205 colon.
In experiment [7] the test system is MDA-MB-435.
Experiment [8] relates to OVCAR-5 ovarian.
Experiment [9] concerns ACHN renal.
Experiment [10] concerns SK-OV-3 ovarian.
The subject of experiment [11] is T-47D breast.
Experiment [12] concerns U251 CNS.
Experiment [13] relates to RPMI-8226 leukemia.

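How tested: cells in 96-well plates exposed to compound for 48 hours at five concentrations. TGI: total growth inhibition.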 Where a SMILES comes first, the peptide text is derived from it. Bridges are numbered along the chain shown (N, C = ends). The star is where a group is joined. Cbz = O=C(OCc1ccccc1)*

The TGI is the concentration at which net growth stops. A high value points to less potent growth arrest. With `COC(=O)C1CCCCNC(=O)CCC(NC(=O)OCc2ccccc2)C(=O)N1` (stereo not drawn) (Cbz-Glu-Lys-OMe; lactam 1-2; configuration not given here), the total growth inhibition concentration (TGI) in [1], in [2], in [3], in experiment [4], in experiment [5] and in experiment [6] was above 100 µM each time. For the same compound, the total growth inhibition concentration (TGI) in [7], in [8], in [9], in experiment [10], in [11] and in experiment [12] was above 100 µM throughout. In experiment [13], this compound showed a TGI above 100 µM.

For `Cc1nn(C(=O)c2ccncc2)c2c1C(c1cccc([N+](=O)[O-])c1)SC(N)=N2` (centres undefined), the concentration for total growth inhibition (TGI) in [1], in experiment [2], in experiment [3], in experiment [4], in [5] and in experiment [6] was above 10 µM in each case. The total growth inhibition concentration (TGI) in [7], in experiment [8], in [9], in [10], in experiment [11] and in experiment [12] was above 10 µM each time. This compound displayed a TGI in experiment [13] above 10 µM.

`CC(=O)CC(C)(C)NC(=O)[C@@]1(O)CC[C@H]2[C@@H]3CCC4=CC(=O)CC[C@@H]4[C@H]3CC[C@@]21C`: the TGI in [1], in [2], in experiment [3], in experiment [4], in [5] and in experiment [6] was above 100 µM in each case. For the same compound, the total growth inhibition concentration (TGI) in experiment [7], in experiment [8], in [9], in experiment [10], in experiment [11] and in experiment [12] was above 100 µM throughout. For the same compound, the total growth inhibition concentration (TGI) in [13] is above 100 µM.

With `O=C1c2ccccc2-c2nc(-c3ccccc3)cc3c2c1nc1ccccc13`, the TGI in [1] worked out at 13.3 µM; in [2] it was 59.3 µM; in experiment [3], 11.9 µM; in experiment [4], 50.3 µM; in experiment [5], 36.6 µM; in experiment [6], 65.3 µM. In addition, the TGI was 3.51 µM in experiment [7]; 61.4 µM in experiment [8]; 91.5 µM in experiment [9]; 55.2 µM in experiment [10]; above 100 µM in experiment [11]; 39.6 µM in [12]. For the same compound, the total growth inhibition concentration (TGI) in [13] amounted to 22 µM.

As for `S=C(N/N=C\c1ccccn1)N(Cc1ccccn1)Cc1ccccn1`, the TGI in [1] is 16.8 µM; in experiment [2] it was above 49 µM; in experiment [3] it was above 39 µM; in [4] it was 23.5 µM; in experiment [5] it was above 51.3 µM; in [6] it was 23.9 µM. Also, the total growth inhibition concentration (TGI) was 41.8 µM in experiment [7]; 63.9 µM in experiment [8]; 5.13 µM in [9]; 17.9 µM in experiment [10]; above 40.4 µM in experiment [11]; above 40 µM in experiment [12]. In experiment [13], the TGI is above 38.8 µM.

Turning to `COC(=O)/C(=C\c1ccco1)P(=O)(OC)OC`, the total growth inhibition concentration (TGI) in experiment [1], in experiment [2], in experiment [3], in [4], in experiment [5] and in [6] was above 100 µM throughout. In addition, the concentration for total growth inhibition (TGI) is above 100 µM in experiment [7]; 31.8 µM in experiment [8]; above 100 µM in experiment [9]; above 100 µM in [10]; above 100 µM in experiment [11]; above 100 µM in experiment [12]. Also, in experiment [13], the TGI is above 100 µM.

With `CCCCc1ccc(-n2sc3ncccc3c2=O)cc1`, the total growth inhibition concentration (TGI) in experiment [1] came to 26.4 µM; in experiment [2], 32 µM; in [3], 60.4 µM; in experiment [4] it was 32.5 µM; in experiment [5], 72.1 µM; in experiment [6], 33.3 µM. For the same compound, the TGI in [7] was 37.5 µM; in experiment [8], 40.6 µM; in [9], 23.5 µM; in experiment [10] it was 90.5 µM; in [11] it was 45.7 µM; in experiment [12], 42.7 µM. The compound also had a total growth inhibition concentration (TGI) in [13] above 100 µM.

With `O/N=C1\CCc2nonc2\C1=N/Nc1ccccc1`, the TGI in experiment [1], in experiment [2], in experiment [3], in [4], in experiment [5] and in experiment [6] was above 100 µM each time. Also, the TGI in [7], in experiment [8], in [9], in experiment [10], in experiment [11] and in experiment [12] was above 100 µM in each case. The compound further displayed a concentration for total growth inhibition (TGI) in experiment [13] above 100 µM.
